Assays:
Assay in all cases: Radiometric kinase assay
Format in all cases: biochemical
[1] = target: AKT2 (Homo sapiens, UniProt P31751); details: read-out: Kinase inhibition (%) AKT2
[2] = target: AURKA (Homo sapiens, UniProt O14965); details: read-out: Kinase inhibition (%) AURKA
[3] = target: CDK6/cyclinD3 (Homo sapiens, UniProt Q00534); details: read-out: Kinase inhibition (%) CDK6/cyclinD3
[4] = target: CHEK1 (Homo sapiens, UniProt O14757); details: read-out: Kinase inhibition (%) CHEK1
[5] = target: EGFR (Homo sapiens, UniProt P00533); details: read-out: Kinase inhibition (%) EGFR
Chain of EGFR (P00533 25-1210): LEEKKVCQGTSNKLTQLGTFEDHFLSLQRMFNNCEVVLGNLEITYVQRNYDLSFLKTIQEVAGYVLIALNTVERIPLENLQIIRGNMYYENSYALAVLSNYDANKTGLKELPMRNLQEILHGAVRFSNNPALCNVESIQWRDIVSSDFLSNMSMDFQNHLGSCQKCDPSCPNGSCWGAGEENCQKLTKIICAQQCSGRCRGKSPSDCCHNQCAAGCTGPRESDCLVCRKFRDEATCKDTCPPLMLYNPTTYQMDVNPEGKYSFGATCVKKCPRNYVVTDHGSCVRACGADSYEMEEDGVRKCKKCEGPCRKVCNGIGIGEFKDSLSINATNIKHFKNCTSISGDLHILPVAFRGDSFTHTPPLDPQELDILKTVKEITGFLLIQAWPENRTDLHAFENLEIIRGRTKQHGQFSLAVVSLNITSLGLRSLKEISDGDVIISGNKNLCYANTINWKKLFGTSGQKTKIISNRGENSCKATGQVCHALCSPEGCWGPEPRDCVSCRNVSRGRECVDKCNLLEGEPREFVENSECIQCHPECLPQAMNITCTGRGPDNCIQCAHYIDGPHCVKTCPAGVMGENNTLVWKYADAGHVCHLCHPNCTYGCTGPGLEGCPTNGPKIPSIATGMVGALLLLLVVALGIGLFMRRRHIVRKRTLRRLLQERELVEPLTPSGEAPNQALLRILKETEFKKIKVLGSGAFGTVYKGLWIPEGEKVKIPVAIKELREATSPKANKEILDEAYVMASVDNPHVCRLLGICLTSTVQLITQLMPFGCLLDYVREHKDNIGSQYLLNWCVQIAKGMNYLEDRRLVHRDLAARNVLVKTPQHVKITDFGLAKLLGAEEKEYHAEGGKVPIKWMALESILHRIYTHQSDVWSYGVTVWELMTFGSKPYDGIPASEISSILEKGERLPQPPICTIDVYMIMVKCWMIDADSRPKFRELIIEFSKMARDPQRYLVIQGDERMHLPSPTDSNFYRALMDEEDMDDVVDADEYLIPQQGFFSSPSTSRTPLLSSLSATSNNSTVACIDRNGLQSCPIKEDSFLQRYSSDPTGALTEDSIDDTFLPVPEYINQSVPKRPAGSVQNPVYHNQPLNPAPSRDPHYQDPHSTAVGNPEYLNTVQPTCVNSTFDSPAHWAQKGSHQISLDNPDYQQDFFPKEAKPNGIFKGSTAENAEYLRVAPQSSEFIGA

[6] = target: KDR (VEGFR2) (Homo sapiens, UniProt P35968); details: read-out: Kinase inhibition (%) KDR (VEGFR2)
Chain of KDR (VEGFR2) (P35968 20-1356): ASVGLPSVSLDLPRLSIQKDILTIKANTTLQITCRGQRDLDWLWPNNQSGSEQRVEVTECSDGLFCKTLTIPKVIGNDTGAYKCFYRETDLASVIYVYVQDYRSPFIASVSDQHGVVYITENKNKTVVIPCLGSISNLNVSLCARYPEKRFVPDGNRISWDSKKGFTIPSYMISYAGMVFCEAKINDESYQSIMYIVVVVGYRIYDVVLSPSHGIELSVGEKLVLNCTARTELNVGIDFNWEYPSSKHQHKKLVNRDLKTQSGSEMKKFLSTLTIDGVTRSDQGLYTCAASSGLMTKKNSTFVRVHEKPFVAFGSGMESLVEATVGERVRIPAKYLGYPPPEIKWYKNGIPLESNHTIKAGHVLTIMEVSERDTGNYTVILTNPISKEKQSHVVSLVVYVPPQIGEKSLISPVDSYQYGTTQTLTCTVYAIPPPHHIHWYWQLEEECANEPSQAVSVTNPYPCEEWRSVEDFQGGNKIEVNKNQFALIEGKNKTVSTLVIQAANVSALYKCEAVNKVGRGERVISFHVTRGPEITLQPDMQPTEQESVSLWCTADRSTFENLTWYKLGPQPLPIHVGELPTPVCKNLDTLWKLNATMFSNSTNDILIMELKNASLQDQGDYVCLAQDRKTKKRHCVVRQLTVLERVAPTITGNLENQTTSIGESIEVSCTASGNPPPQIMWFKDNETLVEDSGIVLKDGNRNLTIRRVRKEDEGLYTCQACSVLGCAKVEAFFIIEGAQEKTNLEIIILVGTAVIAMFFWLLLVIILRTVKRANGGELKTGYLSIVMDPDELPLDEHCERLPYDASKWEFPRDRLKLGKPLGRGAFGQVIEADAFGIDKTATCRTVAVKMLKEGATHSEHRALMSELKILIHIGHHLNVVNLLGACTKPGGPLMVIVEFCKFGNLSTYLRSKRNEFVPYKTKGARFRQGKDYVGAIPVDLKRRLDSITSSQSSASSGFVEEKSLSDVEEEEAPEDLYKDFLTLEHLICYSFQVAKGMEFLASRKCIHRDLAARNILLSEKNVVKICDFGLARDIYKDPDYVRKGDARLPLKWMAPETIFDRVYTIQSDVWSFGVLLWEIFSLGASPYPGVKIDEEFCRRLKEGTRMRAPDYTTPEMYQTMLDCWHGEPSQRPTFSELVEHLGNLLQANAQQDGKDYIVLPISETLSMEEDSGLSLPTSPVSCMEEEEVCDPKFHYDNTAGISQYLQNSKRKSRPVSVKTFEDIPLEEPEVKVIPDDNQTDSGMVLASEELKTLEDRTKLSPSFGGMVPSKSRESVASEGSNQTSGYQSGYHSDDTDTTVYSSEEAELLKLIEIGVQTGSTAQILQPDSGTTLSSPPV

[7] = target: KIT (c-Kit) (Homo sapiens, UniProt P10721); details: read-out: Kinase inhibition (%) KIT (c-Kit)
[8] = target: MAP2K1 (Homo sapiens, UniProt Q02750); details: read-out: Kinase inhibition (%) MAP2K1
Chain of MAP2K1 (Q02750 whole entry): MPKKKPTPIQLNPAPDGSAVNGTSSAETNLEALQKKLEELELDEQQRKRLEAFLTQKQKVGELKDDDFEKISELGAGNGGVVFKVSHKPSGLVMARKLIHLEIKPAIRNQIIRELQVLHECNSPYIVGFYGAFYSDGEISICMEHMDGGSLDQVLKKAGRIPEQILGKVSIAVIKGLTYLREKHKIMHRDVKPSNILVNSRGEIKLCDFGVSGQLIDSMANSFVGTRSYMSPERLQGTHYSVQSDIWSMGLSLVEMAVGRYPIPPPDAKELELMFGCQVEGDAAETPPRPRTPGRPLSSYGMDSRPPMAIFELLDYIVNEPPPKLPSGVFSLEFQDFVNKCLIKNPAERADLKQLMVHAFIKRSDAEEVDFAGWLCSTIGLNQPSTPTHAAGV

[9] = target: NTRK1 (TrkA) (Homo sapiens, UniProt P04629); details: read-out: Kinase inhibition (%) NTRK1 (TrkA)
Chain of NTRK1 (TrkA) (P04629 33-796): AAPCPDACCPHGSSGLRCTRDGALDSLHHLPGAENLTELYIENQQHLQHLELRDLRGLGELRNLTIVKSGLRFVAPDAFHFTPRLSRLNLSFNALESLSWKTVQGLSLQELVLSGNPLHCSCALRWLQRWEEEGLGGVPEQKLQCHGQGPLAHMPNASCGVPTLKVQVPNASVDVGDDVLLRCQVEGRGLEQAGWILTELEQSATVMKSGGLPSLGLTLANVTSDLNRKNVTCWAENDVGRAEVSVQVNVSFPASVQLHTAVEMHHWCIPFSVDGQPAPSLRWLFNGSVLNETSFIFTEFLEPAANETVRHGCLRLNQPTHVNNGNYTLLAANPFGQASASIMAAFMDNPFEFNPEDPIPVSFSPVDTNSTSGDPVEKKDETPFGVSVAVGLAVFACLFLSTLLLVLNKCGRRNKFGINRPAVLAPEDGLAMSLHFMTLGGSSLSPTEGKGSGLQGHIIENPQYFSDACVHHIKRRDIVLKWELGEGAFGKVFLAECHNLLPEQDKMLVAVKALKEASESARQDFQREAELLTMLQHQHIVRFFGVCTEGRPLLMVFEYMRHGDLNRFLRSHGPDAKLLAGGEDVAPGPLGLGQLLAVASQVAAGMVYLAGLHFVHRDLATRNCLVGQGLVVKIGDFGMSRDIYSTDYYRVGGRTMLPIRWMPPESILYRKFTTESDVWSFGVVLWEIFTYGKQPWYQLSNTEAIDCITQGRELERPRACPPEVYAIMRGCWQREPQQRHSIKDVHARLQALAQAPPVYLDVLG

[10] = target: NTRK3 (TrkC) (Homo sapiens, UniProt Q16288); details: read-out: Kinase inhibition (%) NTRK3 (TrkC)
Chain of NTRK3 (TrkC) (Q16288 32-839): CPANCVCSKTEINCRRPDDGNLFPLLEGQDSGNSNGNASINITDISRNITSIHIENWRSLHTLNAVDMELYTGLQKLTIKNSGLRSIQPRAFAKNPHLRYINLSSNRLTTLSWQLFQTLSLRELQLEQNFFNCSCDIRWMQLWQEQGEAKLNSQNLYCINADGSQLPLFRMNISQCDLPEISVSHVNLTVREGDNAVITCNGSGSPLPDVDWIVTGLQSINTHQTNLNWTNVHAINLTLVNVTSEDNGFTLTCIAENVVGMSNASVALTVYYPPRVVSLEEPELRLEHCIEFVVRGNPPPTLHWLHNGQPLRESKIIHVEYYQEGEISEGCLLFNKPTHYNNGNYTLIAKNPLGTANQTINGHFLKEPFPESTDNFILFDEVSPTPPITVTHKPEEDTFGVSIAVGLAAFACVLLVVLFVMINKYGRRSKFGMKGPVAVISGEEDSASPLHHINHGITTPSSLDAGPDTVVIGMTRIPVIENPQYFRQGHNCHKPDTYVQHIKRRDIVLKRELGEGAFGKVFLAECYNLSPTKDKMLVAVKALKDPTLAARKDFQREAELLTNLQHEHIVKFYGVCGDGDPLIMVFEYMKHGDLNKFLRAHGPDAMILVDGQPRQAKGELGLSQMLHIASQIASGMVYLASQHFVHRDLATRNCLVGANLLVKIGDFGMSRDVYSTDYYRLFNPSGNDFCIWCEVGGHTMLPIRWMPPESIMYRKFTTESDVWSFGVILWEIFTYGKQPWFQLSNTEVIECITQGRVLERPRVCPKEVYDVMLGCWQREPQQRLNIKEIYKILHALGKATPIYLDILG

[11] = target: PDGFRB (PDGFRβ) (Homo sapiens, UniProt P09619); details: read-out: Kinase inhibition (%) PDGFRB (PDGFRβ)

Chain of AKT2 (P31751 whole entry): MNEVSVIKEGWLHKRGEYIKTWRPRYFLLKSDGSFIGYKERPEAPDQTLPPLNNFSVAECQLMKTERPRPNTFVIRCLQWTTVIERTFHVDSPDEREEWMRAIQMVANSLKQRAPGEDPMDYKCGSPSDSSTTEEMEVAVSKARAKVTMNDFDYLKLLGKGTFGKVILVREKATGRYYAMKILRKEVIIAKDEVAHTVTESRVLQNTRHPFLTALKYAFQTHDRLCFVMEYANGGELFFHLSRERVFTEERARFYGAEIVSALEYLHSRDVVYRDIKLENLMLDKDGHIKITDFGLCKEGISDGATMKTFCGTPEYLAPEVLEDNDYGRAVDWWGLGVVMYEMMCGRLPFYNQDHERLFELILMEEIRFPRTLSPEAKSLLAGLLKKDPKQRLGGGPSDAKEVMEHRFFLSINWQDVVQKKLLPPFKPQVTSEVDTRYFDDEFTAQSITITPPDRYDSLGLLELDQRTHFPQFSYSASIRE

How did the inhibition at 10 µM [1] turn out when `O=C1C=C(Nc2ccc(OCc3cn(Cc4ccc(Cl)c(Cl)c4)nn3)cc2)C(=O)c2ccccc21` [Compound 4e, 2-((4-((1-(3,4-Dichlorobenzyl)−1H-1,2,3-triazol-4-yl)methoxy)phenyl)amino) naphthalene-1,4-dione] was run?
The inhibition at 10 µM was -7%.

And the inhibition at 10 µM [2]?
The inhibition at 10 µM was 5%.

What about the inhibition at 10 µM [3] of the same compound?
Its inhibition at 10 µM is 3%.

What about the inhibition at 10 µM [4] of the same compound?
The inhibition at 10 µM was -12%.

And the inhibition at 10 µM [5]?
The inhibition at 10 µM was -3%.

What about the inhibition at 10 µM [6] of the same compound?
The inhibition at 10 µM was -9%.

And the inhibition at 10 µM [7]?
Its inhibition at 10 µM is -8%.

And the inhibition at 10 µM [8]?
Its inhibition at 10 µM is 4%.

What about the inhibition at 10 µM [9] of the same compound?
Its inhibition at 10 µM is 2%.

What about the inhibition at 10 µM [10] of the same compound?
The inhibition at 10 µM was 12%.

What about the inhibition at 10 µM [11] of the same compound?
Its inhibition at 10 µM is 14%.

— PMC11850817 (Scientific Reports, 2025)
